Data reported in US20180354909A1, “SUBSTITUTED BENZIMIDAZOLIUM, PYRIDO-IMIDAZOLIUM, OR PYRAZINO-IMIDAZOLIUM COMPOUNDS AS CHEMOTHERAPEUTICS” (The Board of Regents of the University of Texas System, priority 2015, published 2018).

What was measured:
[1] = In vitro plasma half-life; format: in vitro ADME; conditions: murine plasma; for half-life at 2 μM: mouse, plasma, read-out: Plasma T1/2 (converted)
Protocol: (§1) 12M11 (2 μM final concentration) was incubated with murine plasma and saline for 0-1440 minutes. Reactions were quenched with 200 μl (1:2) of methanol containing 0.1% formic acid and 200 ng/ml IS (IS final conc.=100 ng/mL). Samples were vortexed for 15 seconds, incubated at RT for 10 minutes and spun for 5 minutes at 13.2K rpm. Supernatant ([…]) was then transferred to an eppendorf tube and spun in a table top, chilled centrifuge for 5 minutes at 13.2K rpm. Supernatant (800 μL) was transferred to an HPLC vial (w/out insert). Analyzed by Qtrap 3200 mass spectrometer. These methods were used data obtained in the FIGS. 22C and 22F.

[2] = test system: Mut6; assay: Cytotox testing (CellTiter-Glo ATP assay) in Mut6 cells; format: cell-based, mouse; conditions: Mus musculus, 96 h, Mut6 cells, 4 days, CellTiter-Glo; read-out: Activity in Mut6 [EC50]
Protocol: Mut6 tumor cells were cultured in DMEM/F12 media supplemented by EGF (10 ng/mL), basic FGF (10 ng/mL), heparin (4 ug/mL), glucose (total 21 mM), NaHCO3 (113 μg/mL), Hepes (119 μg/mL), glutamine (2 mM), sodium pyruvate (1 mM), N2 supplement (ThermoFisher Gibco 17502-048, 100×, at 100-fold dilution), B27 supplement (ThermoFisher Gibco 12587-010, 50×, at 100-fold dilution), and penicillin/streptomycin (ThermoFisher, final 1%). Cells were maintained in Ultra-low attachment plate (Corning) as sphere-forming cells. For ATP assays and protein/RNA isolation, cells were plated into 96-well plates or 6-well plated that were coated with poly-lysine (Sigma P6407, 10 μg/mL in PBS, 4 hr at 37° C.) and laminin (ThermoFisher 23017015, ˜5 mg/L in PBS, overnight at 37° C.). MEFs and Astrocytes were cultured in DMEM supplemented with 10% FBS and 1% Penicillin/Streptomycin.
2,000 cells were plated into each well of 96-well plates. About 3 hours later, cells were treated by 12M11, at 800-fold dilution (4 mM stock was diluted into 5 μM final concentration). […] CellTiter-Glo assay (Promega) was performed according to manufacturer's instructions, by adding 20 μL of reagent into each well. Luminescence signal was detected by the PolarStar plate reader (BMG Labtech). Experiments were performed in quadruplicate, and results are presented with mean average −/+ standard deviation. EC505 were calculated by GraphPad Prism6 software.
The compounds described herein were tested using a cell-based cytotoxicity assay against neuronal stem cells in Mut6, which is a mouse glioblastoma model cell line.

[3] = Buffer (saline) stability; format: physicochemical
Protocol: as §1

SMILES | Plasma T1/2 [1] | EC50 [2] | Buffer Stability [3] | half-life at 2 μM [1]
CCc1n(CC(=O)O[C@@H]2C[C@H](C)CC[C@H]2C(C)C)c2ccccc2[n+]1C.[Cl-] | < 4 min | 0.1 to 1 µM | 100% | –
CCc1n(CC(=O)O[C@H]2C[C@@H](C)CC[C@@H]2C(C)C)c2ccccc2[n+]1C | – | 0.1 to 1 µM | – | –
CCc1n(CC(=O)OC(C)(C)C)c2ccccc2[n+]1C | – | > 5 µM | – | –
CCc1n(CC(=O)OC)c2ccccc2[n+]1C | – | > 5 µM | – | –
CCc1n(CC(=O)Oc2ccccc2)c2ccccc2[n+]1C | – | > 5 µM | – | –
CCc1n(CC(=O)OCc2ccccc2)c2ccccc2[n+]1C | – | > 5 µM | – | –
CCc1n(CC(=O)O[C@H]2CC[C@@H](C)CC2)c2ccccc2[n+]1C | – | > 5 µM | – | –
CCc1n(CC(=O)O[C@H]2CC[C@H](C)CC2)c2ccccc2[n+]1C | – | > 5 µM | – | –
CCc1n(CC(=O)OCCOC)c2ccccc2[n+]1C | – | > 5 µM | – | –
C#CCCOC(=O)Cn1c(CC)[n+](C)c2ccccc21 | – | > 5 µM | – | –
COC(=O)Cn1c(C)nc2ccccc21 | – | > 5 µM | – | –
COC(=O)Cn1c(-c2ccccc2)nc2ccccc21 | – | > 5 µM | – | –
COC(=O)Cn1c(-c2ccc(N(C)C)cc2)nc2ccccc21 | – | > 5 µM | – | –
COC(=O)Cn1c(-c2ccc(C)cc2)nc2ccccc21 | – | > 5 µM | – | –
COC(=O)Cn1c(-c2ccc(SC)cc2)nc2ccccc21 | – | > 5 µM | – | –
COC(=O)Cn1c(-c2ccc(F)cc2)nc2ccccc21 | – | > 5 µM | – | –
COC(=O)Cn1c(-c2cccc(F)c2)nc2ccccc21 | – | > 5 µM | – | –

SMILES | Plasma T1/2 [1] | EC50 [2] | Buffer Stability [3] | half-life at 2 μM [1]
COC(=O)Cn1c(-c2cccc(C#N)c2)nc2ccccc21 | – | > 5 µM | – | –
COC(=O)Cn1c(-c2ccco2)nc2ccccc21 | – | > 5 µM | – | –
COC(=O)Cn1c(-c2ccccn2)nc2ccccc21 | – | > 5 µM | – | –
COC(=O)Cn1c(/C=C/c2ccccc2)nc2ccccc21 | – | > 5 µM | – | –
C/C=C/c1n(CC(=O)OC2C[C@H](C)CC[C@H]2C(C)C)c2ccccc2[n+]1C (some centres unmarked) | – | 1 to 5 µM | – | –
CC(C)[C@@H]1CC[C@@H](C)CC1OC(=O)Cn1c(-c2ccccc2)nc2ccccc21 (some centres unmarked) | – | > 5 µM | – | –
CC(C)[C@@H]1CC[C@@H](C)CC1OC(=O)Cn1c(-c2ccccc2)[n+](C)c2ccccc21.[I-] (some centres unmarked) | – | 0.1 to 1 µM | 97% | 10.6 min
CC(C)[C@@H]1CC[C@@H](C)CC1OC(=O)Cn1c(-c2ccc(O)cc2)nc2ccccc21 (some centres unmarked) | – | > 5 µM | – | –
CC(C)[C@@H]1CC[C@@H](C)CC1OC(=O)Cn1c(-c2cccc(Br)c2)nc2ccccc21 (some centres unmarked) | – | > 5 µM | – | –
CC(C)[C@@H]1CC[C@@H](C)CC1OC(=O)Cn1c(-c2ccc(N=[N+]=[N-])cc2)nc2ccccc21 (some centres unmarked) | – | > 5 µM | – | –
CC(C)[C@@H]1CC[C@@H](C)CC1OC(=O)Cn1c(-c2cccc(Br)c2)[n+](C)c2ccccc21.[I-] (some centres unmarked) | – | 0.1 to 1 µM | 94% | 29 min
CC(C)[C@@H]1CC[C@@H](C)CC1OC(=O)Cn1c(-c2cccc(F)c2)[n+](C)c2ccccc21.[I-] (some centres unmarked) | – | 0.1 to 1 µM | 100% | 11 min
CC(C)[C@@H]1CC[C@@H](C)CC1OC(=O)Cn1c(-c2cccc(C#N)c2)[n+](C)c2ccccc21 (some centres unmarked) | – | > 5 µM | – | –
CSc1ccc(-c2n(CC(=O)OC3C[C@H](C)CC[C@H]3C(C)C)c3ccccc3[n+]2C)cc1.[I-] (some centres unmarked) | – | 0.1 to 1 µM | 100% | 10 min
CC(C)[C@@H]1CC[C@@H](C)CC1OC(=O)Cn1c(-c2ccc(N(C)C)cc2)[n+](C)c2ccccc21.[I-] (some centres unmarked) | – | < 0.1 µM | 9% | 8 min
Cc1ccccc1-c1n(CC(=O)OC2C[C@H](C)CC[C@H]2C(C)C)c2ccccc2[n+]1C.[I-] (some centres unmarked) | – | 0.1 to 1 µM | 100% | 73 min
Cc1ccc(-c2n(CC(=O)OC3C[C@H](C)CC[C@H]3C(C)C)c3ccccc3[n+]2C)cc1.[I-] (some centres unmarked) | – | 0.1 to 1 µM | 95% | 24 min
